Measured values reported in ChEMBL document CHEMBL6074639, “MALT1 Inhibitors for Treating Cancer and Immunological Diseases” (ACS Med Chem Lett, 2024).

Biological target: T1, Mucosa-associated lymphoid tissue lymphoma translocation protein 1 (Homo sapiens, UniProt Q9UDY8)
T1 sequence (Q9UDY8 whole entry): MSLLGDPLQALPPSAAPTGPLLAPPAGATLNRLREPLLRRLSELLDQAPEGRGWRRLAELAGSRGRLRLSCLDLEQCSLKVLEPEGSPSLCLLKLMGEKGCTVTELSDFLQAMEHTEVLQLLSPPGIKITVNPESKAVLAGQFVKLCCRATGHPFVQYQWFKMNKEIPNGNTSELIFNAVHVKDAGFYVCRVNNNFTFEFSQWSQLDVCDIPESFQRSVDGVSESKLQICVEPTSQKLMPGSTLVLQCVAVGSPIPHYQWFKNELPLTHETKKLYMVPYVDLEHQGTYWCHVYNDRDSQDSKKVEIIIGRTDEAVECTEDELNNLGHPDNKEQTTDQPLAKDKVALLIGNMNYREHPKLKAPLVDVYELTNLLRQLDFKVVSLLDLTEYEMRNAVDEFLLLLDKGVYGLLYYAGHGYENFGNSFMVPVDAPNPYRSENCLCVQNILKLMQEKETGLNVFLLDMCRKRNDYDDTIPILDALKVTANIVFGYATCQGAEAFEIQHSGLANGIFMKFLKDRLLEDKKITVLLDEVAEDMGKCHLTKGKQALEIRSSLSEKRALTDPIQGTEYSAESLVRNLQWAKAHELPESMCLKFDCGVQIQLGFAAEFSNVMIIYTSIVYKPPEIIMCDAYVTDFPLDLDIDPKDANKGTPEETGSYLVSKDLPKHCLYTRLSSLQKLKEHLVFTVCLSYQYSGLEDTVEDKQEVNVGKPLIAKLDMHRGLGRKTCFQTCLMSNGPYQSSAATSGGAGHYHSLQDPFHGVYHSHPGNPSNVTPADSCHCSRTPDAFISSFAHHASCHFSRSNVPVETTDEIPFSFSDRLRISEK
Assay: Inhibition of full length his-tagged MALT1 (1 to 824 residues) (unknown origin) expressed in Baculovirus infected in insect cells using tetrapeptide-[…]-AMC as fluorescent substrate preincubated for 50 mins followed by substrate addition and measured after 4 hrs by fluorescence based analysis

Row | SMILES | IC50 [nM]
1 | C[C@@]1(C(F)(F)F)CN(c2ccc([C@H]3C(F)(F)[C@]3(C)C(=O)NCC3CNC(=O)C3)cc2)c2cnc3cc(Cl)nn3c21 (stereo partly specified) | 6
2 | CC(C)(C)NC(=O)[C@]1(C)[C@@H](c2ccc(N3C[C@@](C)(C(F)(F)F)c4c3cnc3cc(Cl)nn43)cc2)C1(F)F | 6
3 | C[C@@]1(C(F)(F)F)CN(c2ccc([C@H]3C(F)(F)[C@]3(C)C(=O)N[C@H]3C[C@@H](C[S+](C)(=N)[O-])C3)cc2)c2cnc3cc(Cl)nn3c21 (stereo partly specified) | 6
4 | C[C@@]1(C(F)(F)F)CN(c2ccc([C@H]3C(F)(F)[C@]3(CO)C(N)=O)cc2)c2cnc3cc(Cl)nn3c21 | 5
5 | C[C@@]1(C(F)(F)F)CN(c2ccc([C@H]3C(F)(F)[C@]3(C)C(=O)NCC(N)=O)cc2)c2cnc3cc(Cl)nn3c21 | 5
6 | C[C@@]1(C(F)(F)F)CN(c2ccc([C@H]3C(F)(F)[C@]3(C)C(=O)NCCS(N)(=O)=O)cc2)c2cnc3cc(Cl)nn3c21 | 6
